The source of these data is ChEMBL document CHEMBL4219185, “DNA sequence-specific ligands. XVII. Synthesis, spectral properties, virological and biochemical studies of fluorescent dimeric bisbenzimidazoles DBA(n)” (Bioorg Med Chem, 2018).

Data set [1] has as its system HCT-116. The data set can be described thus: Cytotoxicity against human HCT116 cells assessed as reduction in cell viability by MTT assay. It counts as cell-based.
Data set [2] concerns MCF-10A. The data set can be described thus: Cytotoxicity against human MCF10A cells assessed as reduction in cell viability by MTT assay. It counts as cell-based.
The nature of data set [3]: Cytotoxicity against human […] cells assessed as reduction in cell viability by MTT assay. It counts as cell-based.
For data set [4], the system named is MCF7. Kind of data set: Cytotoxicity against human MCF7 cells assessed as reduction in cell viability by MTT assay. Type of data set: cell-based.
For data set [5], the system named is DNA. Kind of data set: Binding affinity to Escherichia coli supercoiled pHOT1 DNA assessed as inhibition of topoisomerase-1-mediated relaxation of supercoiled DNA at 2.5 to 20 uM after 30 mins by agarose gel electrophoresis method. Type of data set: nucleic-acid assay.
The subject of data set [6] is Human alphaherpesvirus 1. The data set can be described thus: Antiviral activity against Herpes simplex virus-1 infected in cells. Type of data set: functional, organism-based.
Data set [7] in a line: Drug uptake in human U251 cell nucleus treated at 10 to 20 uM after 20 to 40 hrs by fluorescent microscopic method. As to conditions: u-251, 20 µM. It counts as ADME, subcellular.
For data set [8], the target named is Human immunodeficiency virus type 1 integrase (Human immunodeficiency virus 1, UniProt Q7ZJM1). Kind of data set: Inhibition of HIV1 integrase.
For data set [9], the system named is Cytomegalovirus. The data set can be described thus: Antiviral activity against CMV infected in cells. It counts as functional, organism-based.
In data set [10] the test system is DNA. The data set can be described thus: Binding affinity to Escherichia coli supercoiled pHOT1 DNA assessed as inhibition of topoisomerase-1-mediated relaxation of supercoiled DNA at 10 uM after 30 mins by agarose gel electrophoresis method. Type of data set: nucleic-acid assay.
Data set [11] concerns Calf thymus DNA. The data set can be described thus: Binding affinity to calf thymus DNA assessed as hypochromic shift at 4.4 x 10^-6M by absorption spectral analysis. It counts as nucleic-acid assay. As to conditions: Bos taurus.
Data set [12] has as its system Calf thymus DNA. The data set can be described thus: Binding affinity to calf thymus DNA groove using DNA cholesteric liquid crystal dispersions assessed as positive band appearance at 1.1 to 5.45 uM by CD spectral analysis. It counts as nucleic-acid assay. As to conditions: Bos taurus.
Data set [13] deals with Calf thymus DNA. The data set can be described thus: Binding affinity to calf thymus DNA assessed as bathochromic shift at 4.4 x 10^-6M by absorption spectral analysis. Type of data set: nucleic-acid assay. The following applies: Bos taurus.
Data set [14] has as its system Calf thymus DNA. The data set can be described thus: Binding affinity to calf thymus DNA at 1 uM by fluorescence spectral analysis. Type of data set: nucleic-acid assay. As to conditions: Bos taurus.
Data set [15] deals with Human alphaherpesvirus 1. The data set can be described thus: Antiviral activity against Herpes simplex virus-1 strain F infected in African green monkey Vero cells assessed as late protein gb level at 50 ug/ml after 48 hrs by immunostaining based luminescent microscopic method (reference value: 95.6%). Type of data set: functional.
Data set [16] has as its system Calf thymus DNA. Kind of data set: Binding affinity to calf thymus DNA at 0.95 uM by fluorescence spectral analysis. Type of data set: nucleic-acid assay. The following applies: Bos taurus.
The test system of data set [17] is Calf thymus DNA. The data set can be described thus: Binding affinity to calf thymus DNA assessed as bathochromic shift at 2.38 x 10^-6M by absorption spectral analysis. It counts as nucleic-acid assay. The following applies: Bos taurus.
Data set [18] has as its system Calf thymus DNA. The data set can be described thus: Binding affinity to calf thymus DNA assessed as hypochromic shift at 2.38 x 10^-6M by absorption spectral analysis. Type of data set: nucleic-acid assay. As to conditions: Bos taurus.
Data set [19] has as its system Calf thymus DNA. The data set can be described thus: Binding affinity to calf thymus DNA groove using DNA cholesteric liquid crystal dispersions assessed as positive band appearance at 0.47 to 4.73 uM by CD spectral analysis. It counts as nucleic-acid assay. As to conditions: Bos taurus.

The source made the active and inactive calls. No cut-off for these calls is given here.

Human immunodeficiency virus type 1 integrase, sequence (Q7ZJM1 whole entry): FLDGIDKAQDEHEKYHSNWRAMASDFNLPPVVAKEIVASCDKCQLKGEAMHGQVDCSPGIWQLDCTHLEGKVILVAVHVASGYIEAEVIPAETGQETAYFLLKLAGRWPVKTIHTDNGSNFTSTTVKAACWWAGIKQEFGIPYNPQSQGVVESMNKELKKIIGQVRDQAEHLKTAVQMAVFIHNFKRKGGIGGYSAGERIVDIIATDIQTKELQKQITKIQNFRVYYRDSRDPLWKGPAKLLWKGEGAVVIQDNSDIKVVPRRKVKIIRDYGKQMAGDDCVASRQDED

On to `CN1CCN(c2ccc3nc(-c4ccc5nc(CNC(=O)CCC(=O)NCc6nc7ccc(-c8nc9ccc(N%10CCN(C)CC%10)cc9[nH]8)cc7[nH]6)[nH]c5c4)[nH]c3c2)CC1`, for which the concentration for half-maximal inhibition (IC50) in data set [1], in [2], in data set [3] and in data set [4] was 20 to 90 µM in each case.
In the case of `CN1CCN(c2ccc3nc(-c4ccc5nc(CNC(=O)CCCCCCC(=O)NCc6nc7ccc(-c8nc9ccc(N%10CCN(C)CC%10)cc9[nH]8)cc7[nH]6)[nH]c5c4)[nH]c3c2)CC1`, the IC50 in data set [1], in data set [2], in data set [3] and in data set [4] was 20 to 90 µM each time.
Take `CN1CCN(c2ccc3nc(-c4ccc5nc(CNC(=O)CCCCCCCCCC(=O)NCc6nc7ccc(-c8nc9ccc(N%10CCN(C)CC%10)cc9[nH]8)cc7[nH]6)[nH]c5c4)[nH]c3c2)CC1`: the IC50 in data set [1], in data set [2], in data set [3] and in [4] was 20 to 90 µM throughout.
`CN1CCN(c2ccc3nc(-c4ccc5nc(CNC(=O)CCCCCCCCCCCC(=O)NCc6nc7ccc(-c8nc9ccc(N%10CCN(C)CC%10)cc9[nH]8)cc7[nH]6)[nH]c5c4)[nH]c3c2)CC1`: the IC50 in [1], in [2], in [3] and in data set [4] was 20 to 90 µM throughout.
Consider `CN(C)CCCNC(=O)c1ccc2nc(-c3ccc4nc(CNC(=O)CCCCCCCCCCCC(=O)NCc5nc6ccc(-c7nc8ccc(C(=O)NCCCN(C)C)cc8[nH]7)cc6[nH]5)[nH]c4c3)[nH]c2c1`, for which the inhibition entry in data set [5] is “Active”. For the same compound, the result in [6] and in data set [9] was Active. In addition, the IC50 in [1] was greater than 240 µM; in data set [2] it was greater than 240 µM; in data set [3], greater than 240 µM; in data set [4], greater than 240 µM; in data set [8], 0.06 µM. Further, the Drug uptake result in [7] is “Active”.
Regarding `CN1CCN(c2ccc3nc(-c4ccc5nc(CNC(=O)CCCCCCCCCCC(=O)NCc6nc7ccc(-c8nc9ccc(N%10CCN(C)CC%10)cc9[nH]8)cc7[nH]6)[nH]c5c4)[nH]c3c2)CC1`, the IC50 in data set [1], in data set [2], in [3] and in data set [4] was 20 to 90 µM each time.
Take `CN1CCN(c2ccc3nc(-c4ccc5nc(CNC(=O)CCCCCCCC(=O)NCc6nc7ccc(-c8nc9ccc(N%10CCN(C)CC%10)cc9[nH]8)cc7[nH]6)[nH]c5c4)[nH]c3c2)CC1`: the inhibition entry in data set [5] is “Active”. In addition, the IC50 in [1], in data set [2], in data set [3] and in [4] was 20 to 90 µM throughout.
As to `CN1CCN(c2ccc3nc(-c4ccc5nc(CNC(=O)CCCC(=O)NCc6nc7ccc(-c8nc9ccc(N%10CCN(C)CC%10)cc9[nH]8)cc7[nH]6)[nH]c5c4)[nH]c3c2)CC1`, the IC50 in [1], in data set [2], in [3] and in [4] was 20 to 90 µM in each case. Further, the inhibition result in data set [10] is “Active”.
Turning to `CN(C)CCCNC(=O)c1ccc2nc(-c3ccc4nc(CNC(=O)CCCCCC(=O)NCc5nc6ccc(-c7nc8ccc(C(=O)NCCCN(C)C)cc8[nH]7)cc6[nH]5)[nH]c4c3)[nH]c2c1`, the result in data set [11], in [12], in [13] and in data set [14] was Active. Besides, in [5], the inhibition result is “Active”. Besides, the IC50 in [1], in data set [2], in data set [3] and in data set [4] was greater than 240 µM throughout. Besides, the Drug uptake result in [7] is reported as “Active”.
In the case of `CN1CCN(c2ccc3nc(-c4ccc5nc(CNC(=O)CC(=O)NCc6nc7ccc(-c8nc9ccc(N%10CCN(C)CC%10)cc9[nH]8)cc7[nH]6)[nH]c5c4)[nH]c3c2)CC1`, the inhibition entry in [5] is “Active”. Further, the IC50 in [1], in data set [2], in [3] and in [4] was 20 to 90 µM in each case.
Turning to `CN1CCN(c2ccc3nc(-c4ccc5nc(CNC(=O)CCCCCCCCC(=O)NCc6nc7ccc(-c8nc9ccc(N%10CCN(C)CC%10)cc9[nH]8)cc7[nH]6)[nH]c5c4)[nH]c3c2)CC1`, the IC50 in [1], in data set [2], in data set [3] and in [4] was 20 to 90 µM each time.
`CN(C)CCCNC(=O)c1ccc2nc(-c3ccc4nc(CNC(=O)CC(=O)NCc5nc6ccc(-c7nc8ccc(C(=O)NCCCN(C)C)cc8[nH]7)cc6[nH]5)[nH]c4c3)[nH]c2c1`: the inhibition result in data set [5] was “Active”. Besides, the result in [6] was Active. Also, the half-maximal inhibitory concentration (IC50) in data set [1], in data set [2], in [3] and in data set [4] was greater than 240 µM throughout.
`CN(C)CCCNC(=O)c1ccc2nc(-c3ccc4nc(CNC(=O)CCCCCCCCCC(=O)NCc5nc6ccc(-c7nc8ccc(C(=O)NCCCN(C)C)cc8[nH]7)cc6[nH]5)[nH]c4c3)[nH]c2c1`: the inhibition result in data set [5] is “Active”. In addition, the IC50 in data set [1], in data set [2], in data set [3] and in data set [4] was greater than 240 µM throughout. The Drug uptake result in data set [7] is “Active”.
As to `Nc1nc2c(ncn2COCCO)c(=O)[nH]1` [ACYCLOVIR], in [15], the Activity is recorded as 0.1%.
As for `CN1CCN(c2ccc3nc(-c4ccc5nc(CNC(=O)CCCCCC(=O)NCc6nc7ccc(-c8nc9ccc(N%10CCN(C)CC%10)cc9[nH]8)cc7[nH]6)[nH]c5c4)[nH]c3c2)CC1`, the inhibition result in data set [5] is “Active”. Moreover, the concentration for half-maximal inhibition (IC50) in data set [1], in data set [2], in data set [3] and in data set [4] was 20 to 90 µM throughout.
On to `CN(C)CCCNC(=O)c1ccc2nc(-c3ccc4nc(CNC(=O)CCCC(=O)NCc5nc6ccc(-c7nc8ccc(C(=O)NCCCN(C)C)cc8[nH]7)cc6[nH]5)[nH]c4c3)[nH]c2c1`, for which, in [5], the inhibition entry was “Active”. Further, the IC50 in data set [1], in data set [2], in [3] and in [4] was greater than 240 µM each time. Also, the Drug uptake entry in [7] was “Active”.
As to `CN1CCN(c2ccc3nc(-c4ccc5nc(CNC(=O)CCCCC(=O)NCc6nc7ccc(-c8nc9ccc(N%10CCN(C)CC%10)cc9[nH]8)cc7[nH]6)[nH]c5c4)[nH]c3c2)CC1`, the IC50 in [1], in data set [2], in data set [3] and in data set [4] was 20 to 90 µM throughout.
As for `CN(C)CCCNC(=O)c1ccc2nc(-c3ccc4nc(CNC(=O)CCCCCCCC(=O)NCc5nc6ccc(-c7nc8ccc(C(=O)NCCCN(C)C)cc8[nH]7)cc6[nH]5)[nH]c4c3)[nH]c2c1`, the result in [16], in data set [6], in [17], in data set [18] and in data set [19] was Active. Also, the inhibition result in [5] was “Active”. The Activity in data set [15] is reported as 10%. The IC50 in [1], in [2], in data set [3] and in data set [4] was greater than 240 µM throughout. For the same compound, in data set [7], the Drug uptake result is “Active”.
For `CN1CCN(c2ccc3nc(-c4ccc5nc(CNC(=O)CCCCCCCCCCCCC(=O)NCc6nc7ccc(-c8nc9ccc(N%10CCN(C)CC%10)cc9[nH]8)cc7[nH]6)[nH]c5c4)[nH]c3c2)CC1`, the IC50 in data set [1], in [2], in data set [3] and in data set [4] was 20 to 90 µM throughout.
